# Experimental data: US10450610B2, “Single nucleotide polymorphisms (SNP) and association with resistance to immune tolerance induction” (University of Tennessee Research Foundation, priority 2008, dated 2019)
# Values joined by “and” are separate entries in the source; they are usually repeats but may differ in a detail not shown here. Identical values can stand only once.
# What was measured:
# [1] = test system: BALB/c mice and DBA/1 lac J mice; test: Effect of commonly used immunomodulatory drugs on oral tolerance induction (oral OVA or oral bovine CII); type: in vivo; conditions: for effect on tolerance induction: oral OVA in BALB/c mice and oral bovine CII in DBA/1 lac J mice; for OT induction to CII: DBA/1 lac J mice, prednisone at 10 mg/day equivalent
# Procedure: Further, studies were conducted using oral OVA (1 mg/day×5 days) in BALB/c mice and oral bovine CII (10 μg×8 doses over 14 days) in DBA/1 lac J mice to test the effects of commonly used immunomodulatory drugs on immune induction ([…], hydroxychloroquine 400 mg/day, methotrexate 17.5 mg/week, leflunomide 20 mg/day after 100 mg/day×3 loading doses, sulfasalazine 2.5 gm/day, D-penicillamine 750 mg/day, IM gold, and etanercept 25 mg twice weekly).
# [2] = test system: spleen cells; test: COX-2 inhibitor SC′236 and oral tolerance induction; spleen cell IFNγ with α1(II) CB mixture (ELISA); type: in vivo, mice; conditions: for oral tolerance induction to CII: DBA/1 mice, assessed by IFNγ production by spleen cells
# Procedure: Groups of 8 mice each were gavaged on MTTHF×2 weeks in the a.m. with PBS or SC′236 (5 μg/gm in 100 μl PBS). SC′236 (Searle) is ˜2000× more inhibitory for COX-2 than for COX-1.
# Four of the mice given PBS in the a.m. and 4 mice given SC′236 in the a.m. were gavaged in the p.m. with 10 μg bovine type II collagen (CII). The other 4 mice in the a.m. PBS and a.m. SC′236 group were gavaged in the p.m. with 0.1M acetic acid (HAc) the vehicle the CII was dissolved in. After these 8 day feedings, all mice were rested for 1 week and then immunized with 100 μg of CII in complete Freund's adjuvant. After 10 days, all mice were sacrificed, and spleen cells (2×10^6/ml) were isolated and set up in culture with PBS and bovine α1(II) (50 μg/ml) CB mixture. After 4 days culture, the supernatants were harvested and IFNγ levels determined by ELISA (Endogen). Since the PBS+spleen cell culture from all mice produced between 1-12 pg/ml IFNγ, only the α1(II) data are plotted. All groups were compared to Placebo control group by Student's 2 sample t test.
# [3] = test system: DBA/1 mice; test: NSAID inhibition of oral tolerance induction to collagen II; arthritic joints scored; type: in vivo
# Procedure: To determine whether tolerance induction to orally fed bovine CII in DBA/1 mice would be abrogated by orally fed NSAID, 3 groups of 20-22 DBA/1 mice were fed (by gavage) eight doses (Monday, Tuesday, Thursday, and Friday for 2 weeks) of the following: Placebo (saline) in the a.m. and Placebo (0.1 M HAc) in the p.m.; Placebo (saline) in the a.m. and 10 μg native bovine CII in the p.m.; or piroxicam (2.4 μg/gm) in the a.m. and native bovine CII (10 μg) in the p.m. After 1 week, all mice were immunized (intradermally at the base of tail) with 100 μg of bovine CII emulsified in complete Freund's adjuvant. Animals were placed in coded cages and were scored by a blinded observer twice weekly for the number of arthritic joints (joints swollen, red, and/or deformed).
# [4] = test system: PBMC; test: Oral collagen II in RA patients; IFNγ production (stimulation index) by PBMC cultured with α1(II); type: in vivo, human; conditions: for non-responders to oral CII: FIG. 13
# Procedure: Immunological tolerance, defined as a ≥30% reduction in IFN-γ production by PBMC cultured with α1(II) of type II collagen, was examined in patients. Patients that were taking disease-modifying antirheumatic drugs, anti-TNF agents and/or non steroidal inflammatories were administered misoprostol 100 μg bid to reverse the non steroidal antiinflammatory inhibition of oral tolerance. Patients were randomized to receive “low” or “high” doses of CII. The Low Dose group (n=38) took daily 30 μg/day bovine CII for 10 weeks, then 50 μg/day for 10 weeks and then 70 μg/day for 10 weeks. The High Dose group (n=41) took 90 μg/day for 10 weeks, 110 μg/day for 10 weeks and then 130 μg/day for 10 weeks.
# Heparinized blood was obtained at baseline and after each of the 10 week treatment periods. The blood was diluted 1:3 with RPMI 1640 containing penicillin (100 u/ml) and streptomycin (100 μg/ml) within 1-4 hours after collection, wrapped in paper, and placed in a styrofoam box containing a “cold pack” and shipped overnight. The PBMC were isolated from the blood samples and set up in culture with bovine α1(II) 25 μg/ml, PHA 10 μg/ml or with 50 ul PBS. After 6 days in culture, cell free supernatants were collected and stored at −70° for up to 7 months at which time all samples from a given patient were assayed for IFNγ by commercial ELISA (R & D Systems). The results are shown as in FIG. 13.
# The IFNγ stimulation index (SI) was calculated as
# [formula] The SI for patients receiving each of the low doses (30 μg, 50 μg and 70 μg/day) was compared with their SI at baseline before each of the 10 week treatments and similarly with the high dose CII group (90 μg, 110 μg and 130 μg/day) with their SI at baseline before each of the 10 week treatments.
# SNP analysis was performed of 16 responders and 8 non-responders to oral CII to find the frequency of SNPs closely associated on chromosomes next to several cytokines and chemokines known to be important for oral tolerance induction. The 16 patients were those with had ≥50% reduction in IFNγ α1 stimulation index from baseline to either the 30 μg/day, 50 μg/day, 110 μg/day or 130 μg/day dose of CII (“OT Responders”). The 8 patients with increases in IFNγ α1 S.I. at the 30 μg/day, 50 μg/day, 110 μg/day or 130 μg/day doses of oral CII were selected (“OT Non-Responders”).
# [5] = test system: spleen cells; test: IFNγ production by spleen cells of fed, CII-immunized mice cultured with α1(II) CB peptide mixture (ELISA); type: in vivo; conditions: fed with Placebo (alone); FIG. 8
# Text: To assess the effect of oral feeding of piroxicam to another group of mice fed Placebo or CII on spleen cell IFNγ production in a manner similar to the experiment in FIG. 7, four groups of mice (4 mice per group) were gavaged 8 days over 2 weeks with the following: Piroxicam a.m.—CII p.m.; Piroxicam a.m.—HAc p.m.; Saline a.m.—CII p.m.; or Saline a.m.—HAc p.m. After 1 week rest, all mice were immunized at the base of the tail with a CII—complete Freund's adjuvant emulsion. After 14 days, mice ere sacrificed, and spleen cells were isolated and set up in culture with PBS or α1(II)CB peptide mixture. After 72 h culture, harvested supernatants ere analyzed for IFNγ levels by ELISA.
# [6] = test system: mesenteric lymph node cells; test: Mesenteric lymph node cell proliferation with α1(II) CB peptide mixture; type: in vivo, mice; conditions: mice fed either CII or piroxicam alone; FIG. 12
# [7] = test system: DBA/1 Lac mice; test: Low dose oral collagen II tolerance induction; arthritis after CII/CFA immunization; type: in vivo; conditions: 8 times over 2 weeks, FIG. 6
# Procedure: Groups of 12 mice were fed oral CII at the doses indicated 8 times over 2 weeks […]. After 4 days rest, the mice were then immunized at the base of the tail with 100 μg CII emulsified with complete Freund's adjuvant. The degree of arthritis was assessed by a blinded observer for 8 weeks.
# The percent of mice with grade 3 or 4 arthritis is indicated on the Y-axis. The biphasis response is due to induction of different tolerance mechanisms by low dose vs high dose CII. Low dose CII (10μg) induces regulatory T cells while high dose (500 μg) induces anergy or clonal deletion.
# [8] = individual RA patients, No SNP A-1515737 AA genotype
# [9] = individual RA patients, SNP A-1515737 AA genotype
molecule,measurement,setting,value
CC(C)(S)[C@@H](N)C(=O)O [D-penicillamine],effect on tolerance induction,[1],did not completely suppress tolerance
NS(=O)(=O)c1ccc(-n2nc(C(F)(F)F)cc2-c2ccc(Cl)cc2)cc1 [SC′236],oral tolerance induction to CII,[2]; listed as SC236,blocked oral tolerance induction
same,oral tolerance induction to CII,[2]; listed as SC'236,abrogates oral tolerance induction
same,IFNγ production by spleen cells stimulated by α1(II) CB digest,"[2]; SC′236 5 μg/gm fed alone, FIG. 9",lower IFNγ production
same,IFNγ production by spleen cells cultured with α1(II) CB digest,"[2]; SC′236 + CII fed, p<0.01, FIG. 9",significant increase
CC(=O)OC[C@H]1O[C@@H]([S-])[C@H](OC(C)=O)[C@@H](OC(C)=O)[C@@H]1OC(C)=O.CCP(CC)CC.[Au+] [auranofin],OT induction to CII,[1],did block OT induction to CII
CCN(CCO)CCCC(C)Nc1ccnc2cc(Cl)ccc12 (centres unmarked) [hydroxychloroquine],effect on tolerance induction,[1],did not completely suppress tolerance
Cc1oncc1C(=O)Nc1ccc(C(F)(F)F)cc1 [leflunomide],effect on tolerance induction,[1],did not completely suppress tolerance
CN(Cc1cnc2nc(N)nc(N)c2n1)c1ccc(C(=O)N[C@@H](CCC(=O)O)C(=O)O)cc1 [methotrexate],effect on tolerance induction,[1],did not completely suppress tolerance
COc1ccc2cc(CCC(C)=O)ccc2c1 [nabumatone],oral tolerance (OT) induction,"[3]; DBA/1 mice fed CII, FIG. 7 / similar studies (data not shown)",abrogated OT induction
C[C@]12C=CC(=O)C=C1CC[C@@H]1[C@@H]2C(=O)C[C@@]2(C)[C@H]1CC[C@]2(O)C(=O)CO [prednisone],OT induction to CII,[1],did block OT induction to CII
same,effect on tolerance induction,[1],did not completely suppress tolerance
O=C(O)c1cc(/N=N/c2ccc(S(=O)(=O)Nc3ccccn3)cc2)ccc1O [sulfasalazine],effect on tolerance induction,[1],did not completely suppress tolerance
bovine type II collagen [CII],suppression of IFNγ production (dose response),"[4]; 30 μg, 50 μg and 110 μg/day of oral CII",maximal suppression
same,IFNγ SI,[4]; 70 μg and 90 μg/day doses,did not reduce
same,IFNγ SI compared to baseline values,[4]; 70 μg/day dose,significantly increased
same,patients with a 50% reduction in α1(II) stimulated IFNγ production,"[4]; 30, 50 and 110 μg/day oral CII",69%
same,non-responders to oral CII,[4]; 30-50 μg/day dose,30%
same,non-responders to oral CII,[4]; 110-130 μg/day dose,28%
same,number of CII OT Non-Responder patients,[4]; AA genotype,7
same,number of CII OT Responder patients,[4]; AA genotype,1
same,number of CII OT Non-Responder patients,[4]; Non-AA genotype,2
same,number of CII OT Responder patients,[4]; Non-AA genotype,15
same,Ratio: After/baseline (IFNγ α1(II) SI),"[4]; group mean, No SNP A-1515737 AA genotype",0.427 ± 0.217
same,α1(II) SI After Oral CII,"[4]; group mean, No SNP A-1515737 AA genotype (17 patients)",175 ± 46
same,Ratio: After/baseline (IFNγ α1(II) SI),"[4]; group mean, SNP A-1515737 AA genotype",3.512 ± 1.347
same,α1(II) SI After Oral CII,"[4]; group mean, SNP A-1515737 AA genotype (7 patients)",613 ± 256
same,OT Responder,[4]; [8],Yes (15×) and No (2×)
same,Ratio: After/baseline (IFNγ α1(II) SI),[4]; [8],0.4932 and 1.9178 and 2.9064 and 0.0573 and 0.1034 and 0.4119 and 0.0789 and 0.0694 and 0.0631 and 0 and 0.0018 and 0.0176 and 0.3520 and 0.0423 and 0.2454 and 0.0030 and 0.1008
same,α1(II) SI After Oral CII,"[4]; individual RA patients, No SNP A-1515737 AA genotype, 30, 50 or 110 μg/day for 10 weeks",360 and 280 and 590 and 152 and 6 and 276 and 18 (2×) and 503 and 19 and 0 and 3 and 7 and 358 and 93 and 540 and 246
same,OT Responder,[4]; [9],No (6×) and Yes
same,Ratio: After/baseline (IFNγ α1(II) SI),[4]; [9],2.3774 and 5.0500 and 2.9778 and 10.8021 and 0.0040 and 1.3688 and 2.0050
same,α1(II) SI After Oral CII,"[4]; individual RA patients, SNP A-1515737 AA genotype, 30, 50 or 110 μg/day for 10 weeks",630 and 404 and 268 and 2020 and 3 and 167 and 800
same,oral tolerance to CII (reduced immune response to fed antigen),"[4]; patients taking DMARDs, anti-TNF agents and NSAIDS, low dose misoprostol given",can be induced
same,IFNγ α1(II) S.I. after oral CII treatment,"[4]; patients who carried SNP A-1515737 AA, p=0.230",no significant change
same,IFNγ α1(II) S.I. after oral CII compared to baseline values,"[4]; patients without SNP A-1515737 AA (ROT1 AA) genotype, p<0.001",significant reduction
same,IFNγ SI,"[4]; ten weeks treatment with 30, 50, 110 and 130 μg/day oral CII, vs baseline",marked suppression
same,IFNγ production by spleen cells stimulated by α1(II) CB digest,"[2]; CII 10 μg fed, vs Placebo control, p<0.025, FIG. 9",significant reduction
same,percent of arthritic joints,"[3]; Placebo+CII (10 μg, eight doses) vs Placebo+Placebo fed controls, p<0.03, FIG. 7",less
same,IFNγ production by spleen cells cultured with α1(II) CB peptide mixture,[5],reduced production of IFNγ
same,proliferation in response to α1(II) CB peptide mixture,[6],did not proliferate
same,incidence of arthritis (percent of mice with grade 3 or 4 arthritis),[7]; 10 μg/day oral CII,most effective in reducing the incidence of arthritis
same,incidence of arthritis (percent of mice with grade 3 or 4 arthritis),[7]; 500 μg/day oral CII,"also, but less, effective"
etanercept,effect on tolerance induction,[1],did not completely suppress tolerance
